Data on 33 compounds can be found in patent US20130303509A1, “NAMPT INHIBITORS” (AbbVie Inc., priority 2012, published 2013).

SMILES strings stand for the structures.

The subject of this experiment is PC3 cells. In words: NAMPT Cell Proliferation Assay. Particulars: Homo sapiens, PC-3, 120 h, 5 days incubation, cell viability by Cell Titer Glo. In kind it is cell-based. Summed up:
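Five-day CellTiter-Glo viability readout in PC3 cells grown in RPMI/10% heat-inactivated FBS. Compounds added after overnight attachment as a 10-fold dilution series, […]. Percent inhibition fitted to sigmoidal dose-response to derive IC50.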
The compound `CC(C)Cn1cc(-c2ccc(C(=O)N[C@@H]3CCN(c4cccnn4)C3)s2)cn1` [Example 605, 5-[1-(2-methylpropyl)-1H-pyrazol-4-yl]N-[(3R)-1-(pyridazin-3-yl)pyrrolidin-3-yl]thiophene-2-carboxamide] showed a 50% inhibitory concentration (IC50) of 1400 nM. As for `Cc1ccc(OCC(=O)N2CCC(c3ccc(NC(=O)[C@H]4CCN(c5cccnn5)C4)cc3)CC2)cc1` [Example 636, (3S)-N-(4-{1-[(4-methylphenoxy)acetyl]piperidin-4-yl}phenyl)-1-(pyridazin-3-yl)pyrrolidine-3-carboxamide], inhibition was half-maximal at 82.8 nM (IC50). The same measure for `O=C(Nc1ccc(C2CCN(C(=O)CCC(F)(F)F)CC2)cc1)C1CN(c2cccnn2)C1` [Example 433, 1-(pyridazin-3-yl)-N-{4-[1-(4,4,4-trifluorobutanoyl)piperidin-4-yl]phenyl}azetidine-3-carboxamide]: 5.77 nM. Consider `O=C(Nc1ccc(O[C@@H]2CCN(C(=O)Cc3ccc(F)cc3F)C2)cc1)C1CN(c2cccnn2)C1` [Example 496, N-[4-({(3R)-1-[(2,4-difluorophenyl)acetyl]pyrrolidin-3-yl}oxy)phenyl]-1-(pyridazin-3-yl)azetidine-3-carboxamide], for which inhibition was half-maximal at 6.3 nM (IC50).

Consider `O=C(Nc1ccc(S(=O)(=O)C2CCN(C(=O)c3cccc(F)c3)CC2)cc1)C1CN(c2cccnn2)C1` [Example 583, N-(4-{[1-(3-fluorobenzoyl)piperidin-4-yl]sulfonyl}phenyl)-1-(pyridazin-3-yl)azetidine-3-carboxamide], for which half-maximal inhibition (IC50) was put at 87.4 nM. The value for `O=C(Nc1ccc(O[C@@H]2CCN(C(=O)Cc3ccc(F)cc3)C2)cc1)C1CN(c2cccnn2)C1` [Example 491, N-[4-({(3R)-1-[(4-fluorophenyl)acetyl]pyrrolidin-3-yl}oxy)phenyl]-1-(pyridazin-3-yl)azetidine-3-carboxamide] was 8.45 nM; that for `O=C(Nc1ccc(C2CCN(C(=O)C3CCOC3)CC2)cc1)C1CN(c2cccnn2)C1` (stereo not drawn) [Example 414, 1-(pyridazin-3-yl)-N-{4-[1-(tetrahydrofuran-3-ylcarbonyl)piperidin-4-yl]phenyl}azetidine-3-carboxamide] was 7.4 nM; that for `Cc1ccc(C(=O)N2CCC(S(=O)(=O)c3ccc(NC(=O)C4CN(c5cccnn5)C4)cc3)CC2)cc1` [Example 567, N-(4-{[1-(4-methylbenzoyl)piperidin-4-yl]sulfonyl}phenyl)-1-(pyridazin-3-yl)azetidine-3-carboxamide] was 76.5 nM.

As to `O=C(Nc1ccc(C2CCN(C(=O)c3ccc(F)cc3)CC2)cc1F)C1CN(c2cccnn2)C1` [Example 832, N-{2-fluoro-4-[1-(4-fluorobenzoyl)piperidin-4-yl]phenyl}-1-(pyridazin-3-yl)azetidine-3-carboxamide], it took 16.7 nM to reach half-maximal inhibition (IC50).

Turning to `O=C(Nc1ccc(OC2CCN(C(=O)Cc3cccc(F)c3)CC2)cc1)C1CN(c2ccnnc2)C1` [Example 288, N-[4-({1-[(3-fluorophenyl)acetyl]piperidin-4-yl}oxy)phenyl]-1-(pyridazin-4-yl)azetidine-3-carboxamide], half-maximal inhibition (IC50) required 24.8 nM.

`O=C(Nc1ccc(OC2CN(C(=O)C3CCCC3)C2)cc1)C1CN(c2ccnnc2)C1` [Example 259, N-(4-{[1-(cyclopentylcarbonyl)azetidin-3-yl]oxy}phenyl)-1-(pyridazin-4-yl)azetidine-3-carboxamide] had an IC50 of 72.6 nM. `O=C(Nc1ccc(C2CCN(C(=O)c3ccc(F)cc3)CC2)cc1)C1CN(c2ccnnc2)C1` [Example 529, N-{4-[1-(4-fluorobenzoyl)piperidin-4-yl]phenyl}-1-(pyridazin-4-yl)azetidine-3-carboxamide]: half-maximal inhibition (IC50) was put at 9.33 nM.

Consider `O=C(Nc1ccc(C2CCN(C(=O)C3CCOC3)CC2)cc1)C1CN(c2ccnnc2)C1` (stereo not drawn) [Example 542, 1-(pyridazin-4-yl)-N-{4-[1-(tetrahydrofuran-3-ylcarbonyl)piperidin-4-yl]phenyl}azetidine-3-carboxamide], for which the IC50 came to 67.6 nM. The same measure for `O=C(Nc1ccc(OC2CCN(C(=O)c3ccccc3F)CC2)cc1)C1CN(c2cccnn2)C1` [Example 228, N-(4-{[1-(2-fluorobenzoyl)piperidin-4-yl]oxy}phenyl)-1-(pyridazin-3-yl)azetidine-3-carboxamide]: 5.97 nM. The value for `COCCn1nc(CC(C)C)cc1-c1ccc(NC(=O)C2CN(c3cccnn3)C2)cc1` [Example 846, N-{4-[1-(2-methoxyethyl)-3-(2-methylpropyl)-1H-pyrazol-5-yl]phenyl}-1-(pyridazin-3-yl)azetidine-3-carboxamide] was 7.24 nM; that for `O=C(Nc1ccc(OC2CCN(C(=O)C3CCOC3)CC2)cc1)C1CN(c2cccnn2)C1` (stereo not drawn) [Example 226, 1-(pyridazin-3-yl)-N-(4-{[1-(tetrahydrofuran-3-ylcarbonyl)piperidin-4-yl]oxy}phenyl)azetidine-3-carboxamide] was 8.89 nM. The compound `Cc1ccc(C(=O)N2CCC(c3ccc(NC(=O)C4CN(c5cccnc5)C4)cc3)CC2)s1` [Example 126, N-(4-{1-[(5-methylthiophen-2-yl)carbonyl]piperidin-4-yl}phenyl)-1-(pyridin-3-yl)azetidine-3-carboxamide] gave an IC50 of 0.26 nM. The value for `Cn1nc(C2CC2)cc1-c1ccc(NC(=O)C2CN(c3cccnn3)C2)cc1` [Example 805, N-[4-(3-cyclopropyl-1-methyl-1H-pyrazol-5-yl)phenyl]-1-(pyridazin-3-yl)azetidine-3-carboxamide] was 65 nM; that for `O=C(Nc1ccc(C2CCN(C(=O)c3ccccc3)CC2)cc1)C1CCN(c2cccnn2)CC1` [Example 626, N-[4-(1-benzoylpiperidin-4-yl)phenyl]-1-(pyridazin-3-yl)piperidine-4-carboxamide] was 5220 nM.

The compound `CCC(C)(C)C(=O)N1CCC(c2ccc(NC(=O)C3CN(c4cccnn4)C3)cc2)CC1` [Example 325, N-{4-[1-(2,2-dimethylbutanoyl)piperidin-4-yl]phenyl}-1-(pyridazin-3-yl)azetidine-3-carboxamide] showed an IC50 of 1.28 nM. The value for `O=C(NC1CN(c2cccnn2)C1)c1ccc(C2CCN(C(=O)c3ccc(F)cc3)CC2)s1` [Example 815, 5-[1-(4-fluorobenzoyl)piperidin-4-yl]-N-[1-(pyridazin-3-yl)azetidin-3-yl]thiophene-2-carboxamide] was 185 nM. In turn, `CC(C)(O)C(=O)N1CCC(Oc2ccc(NC(=O)C3CN(c4cccnc4)C3)cc2)CC1` [Example 31, N-(4-{[1-(2-hydroxy-2-methylpropanoyl)piperidin-4-yl]oxy}phenyl)-1-(pyridin-3-yl)azetidine-3-carboxamide] registered an IC50 of 6.9 nM. The compound `O=C(Nc1ccc(C2CCN(C(=O)c3ccc(C(F)(F)F)cc3)CC2)cc1)C1CN(c2ccnnc2)C1` [Example 553, 1-(pyridazin-4-yl)-N-(4-{1-[4-(trifluoromethyl)benzoyl]piperidin-4-yl}phenyl)azetidine-3-carboxamide] showed an IC50 of 44.1 nM. With `O=C(Nc1ccc(OC2CCN(C(=O)c3cccc(Cl)c3)CC2)cc1)C1CN(c2ccnnc2)C1` [Example 295, N-(4-{[1-(3-chlorobenzoyl)piperidin-4-yl]oxy}phenyl)-1-(pyridazin-4-yl)azetidine-3-carboxamide], the 50% inhibitory concentration (IC50) came to 71.5 nM. The same measure for `O=C(Nc1ccc(S(=O)(=O)C2CCN(C(=O)C3CCCC3)CC2)cc1)C1CN(c2ccnnc2)C1` [Example 617, N-(4-{[1-(cyclopentylcarbonyl)piperidin-4-yl]sulfonyl}phenyl)-1-(pyridazin-4-yl)azetidine-3-carboxamide]: 1870 nM; for `CO[C@H](C(=O)N1CCC(c2ccc(NC(=O)C3CN(c4cccnn4)C3)cc2)CC1)c1ccccc1` [Example 420, N-(4-{1-[(2S)-2-methoxy-2-phenylacetyl]piperidin-4-yl}phenyl)-1-(pyridazin-3-yl)azetidine-3-carboxamide]: 2.35 nM. The same measure for `CC(C)(C)CC(=O)N1CCC(S(=O)(=O)c2ccc(NC(=O)C3CN(c4cccnn4)C3)cc2)CC1` [Example 595, N-(4-{[1-(3,3-dimethylbutanoyl)piperidin-4-yl]sulfonyl}phenyl)-1-(pyridazin-3-yl)azetidine-3-carboxamide]: 80.6 nM; for `O=C(Nc1ccc(C2CCN(C(=O)c3ccccc3)CC2)cc1)C1CN(c2cccnc2)C1` [Example 26, N-[4-(1-benzoylpiperidin-4-yl)phenyl]-1-(pyridin-3-yl)azetidine-3-carboxamide]: 0.682 nM. On to `O=C(Nc1ccc(OC2CCN(C(=O)c3ccc(F)cc3)CC2)cc1)[C@H]1CCN(c2cccnn2)C1` [Example 800, (3S)-N-(4-{[1-(4-fluorobenzoyl)piperidin-4-yl]oxy}phenyl)-1-(pyridazin-3-yl)pyrrolidine-3-carboxamide], for which the IC50 amounted to 60 nM. Against the preceding compound, the IC50 is about 88-fold higher. The value for `Cc1ccc(C(=O)N2CCC(c3ccc(NC(=O)[C@H]4CCN(c5cccnn5)C4)cc3)CC2)cn1` [Example 656, (3S)-N-(4-{1-[(6-methylpyridin-3-yl)carbonyl]piperidin-4-yl}phenyl)-1-(pyridazin-3-yl)pyrrolidine-3-carboxamide] was 61 nM; that for `O=C(Nc1ccc(O[C@@H]2CCN(C(=O)c3ccccc3)C2)cc1)[C@H]1CCN(c2cccnn2)C1` [Example 774, (3S)—N-(4-{[(3R)-1-benzoylpyrrolidin-3-yl]oxy}phenyl)-1-(pyridazin-3-yl)pyrrolidine-3-carboxamide] was 2.52 nM.

On to `O=C(Nc1ccc(OC2CN(C(=O)C3CCCCC3)C2)cc1)C1CN(c2ccnnc2)C1` [Example 255, N-(4-{[1-(cyclohexylcarbonyl)azetidin-3-yl]oxy}phenyl)-1-(pyridazin-4-yl)azetidine-3-carboxamide], for which the IC50 was 24.1 nM. `CCC(=O)N1CCC(c2ccc(NC(=O)C3CN(c4cccnn4)C3)cc2)CC1` [Example 440, N-[4-(1-propanoylpiperidin-4-yl)phenyl]-1-(pyridazin-3-yl)azetidine-3-carboxamide]: the IC50 is 1.8 nM.
